Here are results for one compound from publication PMC11996864, “A small-molecule inhibitor of BCL10-MALT1 interaction abrogates progression of diffuse large B cell lymphoma” (The Journal of Clinical Investigation, 2025).

Assay [1] has as its system IL-2 secretion from primary mouse splenocytes. Kind of assay: Secreted IL-2 ELISA, stimulated primary splenocytes. Type of assay: cell-based. The settings on record: Suppl Fig. 4B; for IL-2 protein level (% of control) / activity at 5 µM: 5 uM; for activity at 1 µM / activity at 5 µM: Mus musculus, Splenocyte, read-out: IL-2 protein level (% of control).
The subject of assay [2] is IL-2 secretion from Jurkat T cells. Kind of assay: Secreted IL-2 ELISA after PMA/Iono. To be noted: PMA/Iono treated, Suppl Fig. 4A. The format is cell-based, human.

The structures appear in SMILES notation. Where “and” joins values, the source holds several entries; their conditions need not be identical. Identical values can stand only once. Like-named read-outs stand apart in the source and are kept apart here.

Take `CN1CCCC(CN2c3ccccc3Sc3ccccc32)C1` (centres unmarked) [Mepazine, mepazine, reference compound]: the “IL-2 protein level (% of control)” value was 22.2086 % of control and 29.3738 % of control in assay [1] (CD3/CD28 treated); 17.095 % of control and 28.7342 % of control in assay [1] (PMA/Iono treated); 22.8269 % of control and 31.0927 % of control in assay [2] (5 uM). The figures for the activity at 1 µM in assay [1] (CD3/CD28 treated) and in assay [1] (PMA/Iono treated) were 82.7% and 83.3%, respectively. Also, the activity at 5 µM in assay [1] (CD3/CD28 treated) worked out at 15.6%; in assay [1] (PMA/Iono treated), 22.3%; in assay [2] (Homo sapiens, Jurkat, read-out: IL-2 protein level (% of control)) it was 29.9%.
